Experimental data reported in patent US12721816B2, “Polymer-encapsulated drug particles” (Tonic Medical, Inc., priority 2020, dated 2026).

Experiments:
[1] = stability under ethylene oxide sterilization, heating, and aging with paclitaxel; details: formulated with paclitaxel
[2] = BSA added; cited from earlier work
[3] = urethral stricture patients; 1 hour, 3 hours, 5 hours, 10 hours, 24 hours, and 5 days
Method: Clinical subjects were evaluated at 14, 30, 90, 180, 365 days, and 2 years after the index procedure. Evaluations included analysis of stricture free rate, uroflowmetry including Qmax, and PVR.

albumin = albumin (Homo sapiens, UniProt P02768); details: cited from earlier work
albumin, sequence (P02768 25-609): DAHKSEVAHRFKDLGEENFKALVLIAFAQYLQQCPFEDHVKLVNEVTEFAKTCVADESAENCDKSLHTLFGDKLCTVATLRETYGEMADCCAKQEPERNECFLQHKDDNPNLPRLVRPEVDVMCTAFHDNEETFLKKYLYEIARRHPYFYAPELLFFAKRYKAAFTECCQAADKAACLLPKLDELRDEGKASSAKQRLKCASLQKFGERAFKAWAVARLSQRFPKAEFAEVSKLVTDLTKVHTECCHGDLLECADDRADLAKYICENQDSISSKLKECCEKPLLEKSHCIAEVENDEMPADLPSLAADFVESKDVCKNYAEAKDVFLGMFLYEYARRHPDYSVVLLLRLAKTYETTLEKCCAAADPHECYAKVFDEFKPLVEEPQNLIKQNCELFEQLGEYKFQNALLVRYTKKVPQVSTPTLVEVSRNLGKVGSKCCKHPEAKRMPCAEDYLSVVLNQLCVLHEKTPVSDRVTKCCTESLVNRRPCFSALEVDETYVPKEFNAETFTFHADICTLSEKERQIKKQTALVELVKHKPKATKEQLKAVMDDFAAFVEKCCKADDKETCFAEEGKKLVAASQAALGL

SMILES: O=C(O)c1ccccc1 [benzoic acid]
- stability under ethylene oxide sterilization, heating, and aging process [1]: not stable

SMILES: CC(=O)O[C@H]1C(=O)[C@@]2(C)[C@H]([C@H](OC(=O)c3ccccc3)[C@]3(O)C[C@H](OC(=O)[C@H](O)[C@@H](NC(=O)c4ccccc4)c4ccccc4)C(C)=C1C3(C)C)[C@]1(OC(C)=O)CO[C@@H]1C[C@@H]2O [paclitaxel]
- solubility increase in PBS with the addition of BSA [2]: over 20 fold
- Human plasma paclitaxel concentration on average [3]: below the level of quantification

SMILES: CO[C@H]1C[C@@H]2CC[C@@H](C)[C@@](O)(O2)C(=O)C(=O)N2CCCC[C@H]2C(=O)O[C@H]([C@H](C)C[C@@H]2CC[C@@H](O)[C@H](OC)C2)CC(=O)[C@H](C)/C=C(\C)[C@@H](O)[C@@H](OC)C(=O)[C@H](C)C[C@H](C)/C=C/C=C/C=C/1C [sirolimus]
- share of protein binding to albumin (albumin; bound primarily to albumin): 97%
- protein bound (albumin): 92%
